These results are taken from patent publication US6979675B2, “Treatment of cancer with 2-deoxyglucose” (Threshold Pharmaceuticals, Inc., priority 2003, dated 2005).

One assay relates to MV522 cells. In words: Sulforhodamine B (SRB) growth inhibition assay. It counts as cell-based. As to conditions: Homo sapiens, 72 hours treatment. As to the method: (§1) The human lung tumor cell lines were MV522 and NCI-H23, both of which were derived from tumors displaying histopathology of adenocarcinoma, one of the at least three types of NSCLC. The NCI-H23 tumor cell line is available from the ATCC (Rockville, Md.), and the MV522 cell line was obtained by Dr. M. J. Kelner of the University of California. The cells were cultured in RPMI medium (Nova Tech, Grand Island, N.Y.) at 37° C. in a humidified atmosphere containing 5% CO2. For passaging, cells grown in 75 cm^2 flasks (60–70% confluency) were washed with PBS and dislodged from the flasks with trypsin (Gibco BRL) before being passaged. Cells used for the experiments described below were centrifuged and resuspended in cell culture medium at a concentration of 10^5 cells/mL. A 100 microliter aliquot (ten thousand cells) was plated into each well of a 96-well microtiter plate.
(§2) Docetaxel (Taxotere™, Aventis Pharmaceuticals, Inc.) solubilized in 100% DMSO and diluted 1000×to the desired concentration (0.1% DMSO final concentration), was used as a positive control. […] Exponentially growing cells in 100 microliters of cell culture medium were plated on Day 0 in 96-well microtiter plates at a concentration of 10^4 cells/well. On Day 1, drugs were added to each well of the microtiter plate with the designated concentration in 100 microliter aliquots of cell culture medium and incubated at 37° C. in a humidified incubator (5% CO2/95% HEPA filtered air). After three days of treatment, adherent cells were fixed by adding 50 microliters of cold 50% trichloracetic acid to each well and incubating for one hour at 4° C. The supernatant was discarded, and plates were washed twice with de-ionized water and air-dried. One hundred microliters of SRB solution were added to each well of the plate and incubated ten minutes at room temperature. Unbound SRB stain was removed by washing twice with 1% acetic acid. The bound SRB stain was solubilized with 10 mM Tris buffer, and the optical densities read at a single wavelength of 515 nm.
(§3) IC50 values (50% effective dose) were calculated from two different experiments, each of which involved 6 replicates for each dose tested. […]

A further assay relates to NCI-H23 cells. In words: Sulforhodamine B (SRB) growth inhibition assay. It counts as cell-based. As to conditions: Homo sapiens, 72 hours treatment. As to the method: as §1, §2, §3

One may read the IC50 as the midpoint of a concentration-inhibition curve. Take `O=CC[C@@H](O)[C@H](O)[C@H](O)CO` [2-DG, 2-deoxy-D-glucose]: the IC50 in the assay on MV522 cells was 3740 ± 740 µM; in the assay on NCI-H23 cells it was 1860 ± 532 µM.
